Measured values: PubChem BioAssay (NCI)
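Values below derive from 48-hour exposures of cells grown in 96-well plates, with endpoints linearly interpolated between the two concentrations bracketing the appropriate inhibition level. Here, GI50 denotes the concentration required for 50% inhibition of growth. At the TGI there is no net growth.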

What was measured:
Experiment in all cases: inhibition of tumour cell growth, NCI panel, 48 h
SW-620 colon = tested on: SW-620 colon
PC-3 prostate = tested on: PC-3 prostate
T-47D breast = tested on: T-47D breast
NCI-H522 lung = tested on: NCI-H522 lung
MDA-MB-435 = tested on: MDA-MB-435
NCI-H23 lung = tested on: NCI-H23 lung
OVCAR-4 ovarian = tested on: OVCAR-4 ovarian
786-0 renal = tested on: 786-0 renal
MCF7 breast = tested on: MCF7 breast
UACC-62 melanoma = tested on: UACC-62 melanoma
KM12 colon = tested on: KM12 colon
SNB-19 CNS = tested on: SNB-19 CNS
SF-295 CNS = tested on: SF-295 CNS
MOLT-4 leukemia = tested on: MOLT-4 leukemia
SK-MEL-2 melanoma = tested on: SK-MEL-2 melanoma
A498 renal = tested on: A498 renal
SF-539 CNS = tested on: SF-539 CNS
RPMI-8226 leukemia = tested on: RPMI-8226 leukemia
HCT-116 colon = tested on: HCT-116 colon
IGROV1 ovarian = tested on: IGROV1 ovarian
U251 CNS = tested on: U251 CNS
OVCAR-3 ovarian = tested on: OVCAR-3 ovarian
MDA-MB-231 breast = tested on: MDA-MB-231 breast
SN12C renal = tested on: SN12C renal
RXF 393 renal = tested on: RXF 393 renal
SK-OV-3 ovarian = tested on: SK-OV-3 ovarian
NCI-H226 lung = tested on: NCI-H226 lung
UACC-257 melanoma = tested on: UACC-257 melanoma
SK-MEL-28 melanoma = tested on: SK-MEL-28 melanoma
K-562 leukemia = tested on: K-562 leukemia
OVCAR-5 ovarian = tested on: OVCAR-5 ovarian
NCI/ADR-RES ovarian = tested on: NCI/ADR-RES ovarian
SR leukemia = tested on: SR leukemia
HT29 colon = tested on: HT29 colon
DU-145 prostate = tested on: DU-145 prostate
M14 melanoma = tested on: M14 melanoma
LOX IMVI melanoma = tested on: LOX IMVI melanoma
SNB-75 CNS = tested on: SNB-75 CNS
SK-MEL-5 melanoma = tested on: SK-MEL-5 melanoma
NCI-H460 lung = tested on: NCI-H460 lung
HCC-2998 colon = tested on: HCC-2998 colon
CCRF-CEM leukemia = tested on: CCRF-CEM leukemia
COLO 205 colon = tested on: COLO 205 colon
TK-10 renal = tested on: TK-10 renal
HCT-15 colon = tested on: HCT-15 colon
SF-268 CNS = tested on: SF-268 CNS
HL-60(TB) leukemia = tested on: HL-60(TB) leukemia
OVCAR-8 ovarian = tested on: OVCAR-8 ovarian
HS 578T breast = tested on: HS 578T breast
HOP-62 NSCLC = tested on: HOP-62 NSCLC
MALME-3M melanoma = tested on: MALME-3M melanoma
BT-549 breast = tested on: BT-549 breast
A549 NSCLC = tested on: A549 NSCLC
EKVX NSCLC = tested on: EKVX NSCLC
HOP-92 NSCLC = tested on: HOP-92 NSCLC
UO-31 renal = tested on: UO-31 renal

**Q.** Which GI50 (SW-620 colon) does the source give for `CN(C)CCCOc1ccc(OCCCN(C)C)c2c1C(=O)c1ccccc1C2=O` here?
**A.** 532 nM

**Q.** And the TGI (SW-620 colon)?
**A.** 11000 nM

**Q.** What about the GI50 (PC-3 prostate) of the same compound?
**A.** 1480 nM

**Q.** And the TGI (PC-3 prostate)?
**A.** 5150 nM

**Q.** And the GI50 (T-47D breast)?
**A.** 1360 nM

**Q.** And the TGI (T-47D breast)?
**A.** 8300 nM

**Q.** And the GI50 (NCI-H522 lung)?
**A.** 381 nM

**Q.** What about the TGI (NCI-H522 lung) of the same compound?
**A.** 2210 nM

**Q.** And the GI50 (MDA-MB-435)?
**A.** 1590 nM

**Q.** What about the TGI (MDA-MB-435) of the same compound?
**A.** 3190 nM

**Q.** What about the GI50 (NCI-H23 lung) of the same compound?
**A.** 1020 nM

**Q.** What about the TGI (NCI-H23 lung) of the same compound?
**A.** 4270 nM

**Q.** What about the GI50 (OVCAR-4 ovarian) of the same compound?
**A.** 1400 nM

**Q.** And the TGI (OVCAR-4 ovarian)?
**A.** 5180 nM

**Q.** What about the GI50 (786-0 renal) of the same compound?
**A.** 1770 nM

**Q.** What about the TGI (786-0 renal) of the same compound?
**A.** 10300 nM

**Q.** And the GI50 (MCF7 breast)?
**A.** 388 nM

**Q.** And the TGI (MCF7 breast)?
**A.** 10600 nM

**Q.** And the GI50 (UACC-62 melanoma)?
**A.** 1890 nM

**Q.** And the TGI (UACC-62 melanoma)?
**A.** 4240 nM

**Q.** And the GI50 (KM12 colon)?
**A.** 961 nM

**Q.** And the TGI (KM12 colon)?
**A.** 10600 nM

**Q.** And the GI50 (SNB-19 CNS)?
**A.** 941 nM

**Q.** What about the TGI (SNB-19 CNS) of the same compound?
**A.** 10000 nM

**Q.** What about the GI50 (SF-295 CNS) of the same compound?
**A.** 1710 nM

**Q.** What about the TGI (SF-295 CNS) of the same compound?
**A.** 10600 nM

**Q.** And the GI50 (MOLT-4 leukemia)?
**A.** 378 nM

**Q.** What about the TGI (MOLT-4 leukemia) of the same compound?
**A.** 5990 nM

**Q.** What about the GI50 (SK-MEL-2 melanoma) of the same compound?
**A.** 1260 nM

**Q.** What about the TGI (SK-MEL-2 melanoma) of the same compound?
**A.** 3340 nM

**Q.** And the GI50 (A498 renal)?
**A.** 1380 nM

**Q.** What about the TGI (A498 renal) of the same compound?
**A.** 3320 nM

**Q.** And the GI50 (SF-539 CNS)?
**A.** 1570 nM

**Q.** And the TGI (SF-539 CNS)?
**A.** 4110 nM

**Q.** And the GI50 (RPMI-8226 leukemia)?
**A.** 2050 nM

**Q.** And the TGI (RPMI-8226 leukemia)?
**A.** 6550 nM

**Q.** What about the GI50 (HCT-116 colon) of the same compound?
**A.** 379 nM

**Q.** And the TGI (HCT-116 colon)?
**A.** 10300 nM

**Q.** What about the GI50 (IGROV1 ovarian) of the same compound?
**A.** 1780 nM

**Q.** What about the TGI (IGROV1 ovarian) of the same compound?
**A.** 14200 nM

**Q.** What about the GI50 (U251 CNS) of the same compound?
**A.** 682 nM

**Q.** And the TGI (U251 CNS)?
**A.** 9020 nM

**Q.** And the GI50 (OVCAR-3 ovarian)?
**A.** 1930 nM

**Q.** And the TGI (OVCAR-3 ovarian)?
**A.** 8260 nM

**Q.** And the GI50 (MDA-MB-231 breast)?
**A.** 908 nM

**Q.** What about the TGI (MDA-MB-231 breast) of the same compound?
**A.** 4630 nM

**Q.** What about the GI50 (SN12C renal) of the same compound?
**A.** 517 nM

**Q.** What about the TGI (SN12C renal) of the same compound?
**A.** 11900 nM

**Q.** What about the GI50 (RXF 393 renal) of the same compound?
**A.** 1320 nM

**Q.** And the TGI (RXF 393 renal)?
**A.** 3690 nM

**Q.** And the GI50 (SK-OV-3 ovarian)?
**A.** 988 nM

**Q.** And the TGI (SK-OV-3 ovarian)?
**A.** 4740 nM

**Q.** And the GI50 (NCI-H226 lung)?
**A.** 1020 nM

**Q.** What about the TGI (NCI-H226 lung) of the same compound?
**A.** 5540 nM

**Q.** What about the GI50 (UACC-257 melanoma) of the same compound?
**A.** 2380 nM

**Q.** What about the TGI (UACC-257 melanoma) of the same compound?
**A.** 5420 nM

**Q.** And the GI50 (SK-MEL-28 melanoma)?
**A.** 2010 nM

**Q.** What about the TGI (SK-MEL-28 melanoma) of the same compound?
**A.** 4450 nM

**Q.** And the GI50 (K-562 leukemia)?
**A.** 706 nM

**Q.** What about the TGI (K-562 leukemia) of the same compound?
**A.** 6420 nM

**Q.** What about the GI50 (OVCAR-5 ovarian) of the same compound?
**A.** 962 nM

**Q.** And the TGI (OVCAR-5 ovarian)?
**A.** 5290 nM

**Q.** And the GI50 (NCI/ADR-RES ovarian)?
**A.** 33600 nM

**Q.** What about the TGI (NCI/ADR-RES ovarian) of the same compound?
**A.** > 100000 nM

**Q.** What about the GI50 (SR leukemia) of the same compound?
**A.** 524 nM

**Q.** What about the TGI (SR leukemia) of the same compound?
**A.** 5050 nM

**Q.** And the GI50 (HT29 colon)?
**A.** 382 nM

**Q.** And the TGI (HT29 colon)?
**A.** 3580 nM

**Q.** And the GI50 (DU-145 prostate)?
**A.** 1140 nM

**Q.** And the TGI (DU-145 prostate)?
**A.** 11800 nM

**Q.** What about the GI50 (M14 melanoma) of the same compound?
**A.** 1600 nM

**Q.** And the TGI (M14 melanoma)?
**A.** 3490 nM

**Q.** And the GI50 (LOX IMVI melanoma)?
**A.** 810 nM

**Q.** What about the TGI (LOX IMVI melanoma) of the same compound?
**A.** 10200 nM

**Q.** What about the GI50 (SNB-75 CNS) of the same compound?
**A.** 1510 nM

**Q.** And the TGI (SNB-75 CNS)?
**A.** 3720 nM

**Q.** What about the GI50 (SK-MEL-5 melanoma) of the same compound?
**A.** 1860 nM

**Q.** And the TGI (SK-MEL-5 melanoma)?
**A.** 3560 nM

**Q.** What about the GI50 (NCI-H460 lung) of the same compound?
**A.** 514 nM

**Q.** And the TGI (NCI-H460 lung)?
**A.** 11600 nM

**Q.** And the GI50 (HCC-2998 colon)?
**A.** 1260 nM

**Q.** What about the TGI (HCC-2998 colon) of the same compound?
**A.** 6520 nM

**Q.** What about the GI50 (CCRF-CEM leukemia) of the same compound?
**A.** 930 nM

**Q.** And the TGI (CCRF-CEM leukemia)?
**A.** 6950 nM

**Q.** What about the GI50 (COLO 205 colon) of the same compound?
**A.** 379 nM

**Q.** What about the TGI (COLO 205 colon) of the same compound?
**A.** 1820 nM

**Q.** What about the GI50 (TK-10 renal) of the same compound?
**A.** 1710 nM

**Q.** And the TGI (TK-10 renal)?
**A.** 12500 nM

**Q.** And the GI50 (HCT-15 colon)?
**A.** 5450 nM

**Q.** What about the TGI (HCT-15 colon) of the same compound?
**A.** 61500 nM

**Q.** And the GI50 (SF-268 CNS)?
**A.** 1320 nM

**Q.** And the TGI (SF-268 CNS)?
**A.** 7280 nM

**Q.** What about the GI50 (HL-60(TB) leukemia) of the same compound?
**A.** 2140 nM

**Q.** What about the TGI (HL-60(TB) leukemia) of the same compound?
**A.** 6770 nM

**Q.** And the GI50 (OVCAR-8 ovarian)?
**A.** 1140 nM

**Q.** And the TGI (OVCAR-8 ovarian)?
**A.** 12000 nM

**Q.** And the GI50 (HS 578T breast)?
**A.** 2050 nM

**Q.** What about the TGI (HS 578T breast) of the same compound?
**A.** 10500 nM

**Q.** And the GI50 (HOP-62 NSCLC)?
**A.** 634 nM

**Q.** What about the TGI (HOP-62 NSCLC) of the same compound?
**A.** 3540 nM

**Q.** And the GI50 (MALME-3M melanoma)?
**A.** 1110 nM

**Q.** What about the TGI (MALME-3M melanoma) of the same compound?
**A.** 2730 nM

**Q.** What about the GI50 (BT-549 breast) of the same compound?
**A.** 1950 nM

**Q.** What about the TGI (BT-549 breast) of the same compound?
**A.** 4970 nM

**Q.** And the GI50 (A549 NSCLC)?
**A.** 388 nM

**Q.** What about the TGI (A549 NSCLC) of the same compound?
**A.** 11900 nM

**Q.** What about the GI50 (EKVX NSCLC) of the same compound?
**A.** 2300 nM

**Q.** What about the TGI (EKVX NSCLC) of the same compound?
**A.** 11000 nM

**Q.** What about the GI50 (HOP-92 NSCLC) of the same compound?
**A.** 572 nM

**Q.** And the TGI (HOP-92 NSCLC)?
**A.** 4130 nM

**Q.** What about the GI50 (UO-31 renal) of the same compound?
**A.** 2640 nM

**Q.** And the TGI (UO-31 renal)?
**A.** 18300 nM
